Source: patent US20180105492A1, “COMPOUNDS DERIVED FROM 3-ALKYLAMINE-1H-INDOLYL ACRYLATE AND THEIR USE IN THE TREATMENT OF NEURODEGENERATIVE DISEASES” (FUNDACION PARA LA INVESTIGACION BIOMEDICA DEL HOSPITAL …, priority 2014, published 2018)

Legend:
[1] = system: SH-SY5Y cells; experiment: Neuroprotection against rotenone/oligomycin A, pre- and co-incubation model, MTT; assay type: cell-based; settings: Homo sapiens, compound 1 μM pre-incubation 24 h and co-incubation 24 h with Rot/Olig (30/10 μM); for inhibition at 1 µM: read-out: % Protection; for viability at 1 µM: read-out: % Survival
Protocol: SH-SY5Y cells [ECACC 94030304], in 5 to 16 passage after defreezing were maintained in Eagle media modified by Dulbecco (DMEM) containing 15 non-essential amino acids and supplemented with 10% fetal bovine serum, 1 mM glutamine, 50 units/mL penicillin/streptomycin (obtained from GIBCO, Madrid, Spain). Cells were seeded in flasks containing supplemented media and were maintained in an incubator at 37° C. and 5% CO2. 1:4 passes were performed twice per week. For the experiments, cells were seeded in 24 well-plates at a density of 2×10^5 cells/well, or in 96 well-plates at a density of 8×10^4 cells/well. For cytotoxicity experiments, cells were treated with the compounds before confluence with DMEM media supplemented with fetal bovine serum 1%.
(§1) In order to assess cellular viability, we measured the metabolic reduction of 3-(4,5-Dimethylthiazol-2-yl)-2,5 diphenyltetrazolium bromide (MTT). MTT is an indirect assay to measure cellular viability. It is a colorimetric method based on the reduction of 3-(4,5-Dimethylthiazol-2-yl)-2,5 diphenyltetrazolium. This process is performed by the mitochondrial enzyme succinate-dehydrogenase present in metabolic active cells. Thus, the water-soluble yellow MTT (tetrazolium salt) is transformed into a insoluble purple compound (formazan). Quantity of living cells is directly proportional to the quantity of formazan (Mosmann, 1983, J Immunol Methods, 65: 55-63). […] Therefore, with this assay we can measure cellular surviving and proliferation and also, we can determine the cytotoxicity of potential neuroprotective compounds. In order to assess cellular viability in SH-SY5Y cell line, we added 30 μl/well of MTT (5 mg/mL) and after 2 h, medium was carefully removed to avoid losing the formazan and was diluted in 300 μL of DMSO. Afterwards, samples were transferred to a 96 well-plate and the absorbance was measured at 570 nm using a absorbance/fluorescence reader FluoStar optima®. Every MTT assay was performed in triplicates. Absorbance values obtained with the toxic alone were subtracted to the absorbance values obtained in basal conditions (without treatment). That result was considered as the 100% of cell death and the values obtained with the compounds in the presence of the toxic stimulus were normalized as percentages of that value. For determining the surviving percentage, those percentages of cell death were subtracted to 100.
Neuroprotection elicited by the compounds of the invention 1-16: The activation of Nrf2-ARE pathway by different compounds exerts neuroprotective effects against toxic models based on oxidative stress via the expression of cytoprotective genes. […] We evaluated the neuroprotective potential of the compounds using the human neuroblastoma cell line using the following cytotoxicity models: 1) oxidative stress induced by rotenone+oligomycin, both blockers of the electron transport chain as previously described (Halliwell, 1992, J Neurochem, 59: 1609-23, Newhouse y col., 2004, Toxicol Sci, 79: 137-46), and 2) cytotoxicity induced by the electrophilic compound Menadione. This compound produces oxidative stress after being metabolized by microsomal enzymes in the cell which produces hydroxyl radical and oxygen reactive species. As a consequence, there is a depolarization of mitochondrial membrane generating a release of apoptotic factors such as cytochrome c, and activating the caspase cascade (Loor y col., 2010, Free Radic Biol Med, 49: 1925-36, Chuang y col., 2002, Cancer Res, 62: 6246-54). Caspase 3 activation can produce the lysis of proteins and induce DNA fragmentation, leading to cell death (Gerasimenko y col., 2002, J Cell Sci, 115: 485-97).
In this model, a 24 h pre-incubation period was performed in presence of the compounds synthesized at a concentration of 1 μM. Thereafter, a 24 h co-incubation period was added, in presence of the compounds with rotenone/oligomycin A (30 μM/10 μM) mixture. After 24 h, cell viability was assessed by the MTT reduction method. […]

[2] = system: SH-SY5Y cells; experiment: Toxicity in SH-SY5Y neuronal cell line, reduction of cell viability (MTT); assay type: cell-based
Protocol: as §1, with “100. […]” for “100.”
In order to further study its safety profile, the effect of the derivatives on neuronal cells used for neuroprotection experiments, the SH-SY5Y human neuroblastoma cells, was also evaluated. Maintenance and culture methods of this cell line have been described above. For toxicity experiments, SH-SY5Y cells were plated in 96-well plates at the density of 6×10 ^4 cells/well. The experimental conditions were the same as those described for the toxicity study in HepG2 cells.
The results obtained are shown in Table 6 expressed as the lethal dose 50 (LD50), or needed concentration to reduce to 50% the viability of basal conditions (without treatment), measured by the MTT reduction method.

[3] = 24 h incubation, MTT, concentration reducing viability to 50% of basal

Q: With `C/C=C/C(=O)Oc1ccc2[nH]cc(CCNC(C)=O)c2c1` [Compound 1, 3-(2-acetamidoethyl)-1H-indol-5-yl (E)-2-butenoate] as the molecule, how does the inhibition at 1 µM [1] read?
A: 28.8%

Q: And the viability at 1 µM [1]?
A: 77 ± 1.3%

Q: What about the “SH-SY5Y LD50” value [2, 3] of the same molecule?
A: >100 µM

Q: For `CC(=O)NCCc1c[nH]c2ccc(OC(=O)/C=C/c3ccccc3)cc12` [Compound 2, 3-(2-acetamidoethyl)-1H-indol-5-yl cinnamate], which inhibition at 1 µM [1] is on record?
A: 48%

Q: What about the viability at 1 µM [1] of the same molecule?
A: 73.7 ± 4.65%

Q: What about the “SH-SY5Y LD50” value [2, 3] of the same molecule?
A: >100 µM

Q: Which inhibition at 1 µM [1] does the source give for `CC(=O)NCCc1c[nH]c2ccc(OC(=O)/C=C/c3ccc(C)cc3)cc12` [Compound 3, 3-(2-acetamidoethyl)-1H-indol-5-yl (E)-3-(4-methylphenyl)acrylate] here?
A: 55.1%

Q: What about the viability at 1 µM [1] of the same molecule?
A: 76.4 ± 3.89%

Q: What about the “SH-SY5Y LD50” value [2, 3] of the same molecule?
A: 80 µM

Q: How did the inhibition at 1 µM [1] turn out when `COc1ccccc1/C=C/C(=O)Oc1ccc2[nH]cc(CCNC(C)=O)c2c1` [Compound 4, 3-(2-acetamidoethyl)-1H-indol-5-yl (E)-3-(2-methoxyphenyl)acrylate] was run?
A: 28.1%

Q: And the viability at 1 µM [1]?
A: 69.9 ± 4.17%

Q: What about the “SH-SY5Y LD50” value [2, 3] of the same molecule?
A: 64 µM

Q: How did the inhibition at 1 µM [1] turn out when `COc1cccc(/C=C/C(=O)Oc2ccc3[nH]cc(CCNC(C)=O)c3c2)c1` [Compound 5, 3-(2-acetamidoethyl)-1H-indol-5-yl (E)-3-(3-methoxyphenyl)acrylate] was run?
A: 57.6%

Q: What about the viability at 1 µM [1] of the same molecule?
A: 78.7 ± 4.37%

Q: What about the “SH-SY5Y LD50” value [2, 3] of the same molecule?
A: 83 µM

Q: What does the source list for `COc1ccc(/C=C/C(=O)Oc2ccc3[nH]cc(CCNC(C)=O)c3c2)cc1` [Compound 6, 3-(2-acetamidoethyl)-1H-indol-5-yl (E)-3-(4-methoxyphenyl)acrylate]?
A: inhibition at 1 µM [1]: 44.1%; viability at 1 µM [1]: 71.6 ± 3.94%; SH-SY5Y LD50 [2, 3]: 60 µM

Q: With `CC(=O)NCCc1c[nH]c2ccc(OC(=O)/C=C/c3ccc(O)cc3)cc12` [Compound 7, 3-(2-acetamidoethyl)-1H-indol-5-yl (E)-3-(4-hydroxyphenyl)acrylate] as the molecule, how does the inhibition at 1 µM [1] read?
A: 39.8%

Q: And the viability at 1 µM [1]?
A: 79.7 ± 2.37%

Q: And the “SH-SY5Y LD50” value [2, 3]?
A: >100 µM

Q: Which inhibition at 1 µM [1] does the source give for `COc1cc(/C=C/C(=O)Oc2ccc3[nH]cc(CCNC(C)=O)c3c2)ccc1O` [Compound 8, 3-(2-acetamidoethyl)-1H-indol-5-yl (E)-3-(4-hydroxy-3-methoxyphenyl)acrylate] here?
A: 41.7%

Q: And the viability at 1 µM [1]?
A: 81.1 ± 1.71%

Q: And the “SH-SY5Y LD50” value [2, 3]?
A: >100 µM

Q: Which results are given for `CC(=O)NCCc1c[nH]c2ccc(OC(=O)/C=C/c3ccc(F)cc3)cc12` [Compound 9, 3-(2-acetamidoethyl)-1H-indol-5-yl (E)-3-(4-fluorophenyl)acrylate]?
A: inhibition at 1 µM [1]: 40.5%; viability at 1 µM [1]: 69.6 ± 2.63%; SH-SY5Y LD50 [2, 3]: >100 µM

Q: What does the source list for `CC(=O)NCCc1c[nH]c2ccc(OC(=O)/C=C/c3ccc(Br)cc3)cc12` [Compound 10, 3-(2-acetamidoethyl)-1H-indol-5-yl (E)-3-(4-bromophenyl)acrylate]?
A: inhibition at 1 µM [1]: 40.8%; viability at 1 µM [1]: 70.4 ± 2.21%; SH-SY5Y LD50 [2, 3]: 60 µM

Q: What does the source list for `CC(=O)NCCc1c[nH]c2ccc(OC(=O)/C=C/c3ccc(Cl)cc3)cc12` [Compound 11, 3-(2-acetamidoethyl)-1H-indol-5-yl (E)-3-(4-chlorophenyl)acrylate]?
A: inhibition at 1 µM [1]: 28.4%; viability at 1 µM [1]: 70.2 ± 3.7%; SH-SY5Y LD50 [2, 3]: >100 µM

Q: `CC(=O)NCCc1c[nH]c2ccc(OC(=O)/C=C/c3ccc(Cl)c(Cl)c3)cc12` [Compound 12, 3-(2-acetamidoethyl)-1H-indol-5-yl (E)-3-(3,4-dichlorophenyl)acrylate] was tested. Which inhibition at 1 µM [1] did it give?
A: 27.8%

Q: And the viability at 1 µM [1]?
A: 69.9 ± 3.47%

Q: And the “SH-SY5Y LD50” value [2, 3]?
A: 51 µM

Q: What does the source list for `CC(=O)NCCc1c[nH]c2ccc(OC(=O)/C=C/c3ccccc3C(F)(F)F)cc12` [Compound 13, 3-(2-acetamidoethyl)-1H-indol-5-yl (E)-3-(2-(trifluoromethyl)phenyl)acrylate]?
A: inhibition at 1 µM [1]: 50.2%; viability at 1 µM [1]: 73.8 ± 4.55%; SH-SY5Y LD50 [2, 3]: >100 µM

Q: For `CC(=O)NCCc1c[nH]c2ccc(OC(=O)/C=C/c3cccc(C(F)(F)F)c3)cc12` [Compound 14, 3-(2-acetamidoethyl)-1H-indol-5-yl (E)-3-(3-(trifluoromethyl)phenyl)acrylate], which inhibition at 1 µM [1] is on record?
A: 45.9%

Q: What about the viability at 1 µM [1] of the same molecule?
A: 72.6 ± 3.75%

Q: And the “SH-SY5Y LD50” value [2, 3]?
A: >100 µM

Q: How did the inhibition at 1 µM [1] turn out when `CC(=O)NCCc1c[nH]c2ccc(OC(=O)/C=C/c3ccc(C(F)(F)F)cc3)cc12` [Compound 15, 3-(2-acetamidoethyl)-1H-indol-5-yl (E)-3-(4-(trifluoromethyl)phenyl)acrylate] was run?
A: 47.6%

Q: What about the viability at 1 µM [1] of the same molecule?
A: 73 ± 2.99%

Q: And the “SH-SY5Y LD50” value [2, 3]?
A: 70 µM

Q: For `CC(=O)NCCc1c[nH]c2ccc(OC(=O)/C=C/c3ccc([N+](=O)[O-])cc3)cc12` [Compound 16, 3-(2-acetamidoethyl)-1H-indol-5-yl (E)-3-(4-nitrophenyl)acrylate], which inhibition at 1 µM [1] is on record?
A: 29.5%

Q: What about the viability at 1 µM [1] of the same molecule?
A: 76.5 ± 2.18%

Q: And the “SH-SY5Y LD50” value [2, 3]?
A: >100 µM

Q: `COc1ccc2[nH]cc(CCNC(C)=O)c2c1` [Melatonin, reference compound] was tested. Which inhibition at 1 µM [1] did it give?
A: 31.1%

Q: What about the viability at 1 µM [1] of the same molecule?
A: 68.3 ± 4.27%

Q: What about the “SH-SY5Y LD50” value ([2]; human, 24 h) of the same molecule?
A: >100 µM
